Laboratory results published in BindingDB's records for doi:10.1021/jm00060a002 (Merck Reserch Laboratories, 1993).

Target: T1, Gag-Pol polyprotein [588-1027]/[588-1147] (Human immunodeficiency virus 1, UniProt P04585)
T1 construct: 588-1027; 588-1147
Test: Tested for inhibition against HIV-1 RT (used (poly)rC-(oligo)dG as the template)

Row | Compound | IC50 [µM]
1 | CCc1cc(CCc2nc3ccccc3o2)c(N)nc1C [3-[2-(1,3-benzoxazol-2-yl)ethyl]-5-ethyl-6-methylpyridin-2-amine] | 100
2 | CCc1cc(CCc2nc3c(o2)CCCC3)c(=O)[nH]c1C [5-ethyl-6-methyl-3-[2-(4,5,6,7-tetrahydro-1,3-benzoxazol-2-yl)ethyl]-1,2-dihydropyridin-2-one] | 0.058
